From patent publication US20250051355A1, “COMPOUNDS, COMPOSITIONS, AND METHODS” (ACONCAGUA BIO, INC., priority 2023, published 2025)

Legend:
[1] = molecular target: human calcitonin receptor (CTR) and RAMP3 (AMY3) (Homo sapiens, UniProt O60896+P30988); assay: Amylin Receptor cAMP Assay II; type: cell-based; settings: COS-7/AMY3 cells, cAMP dynamic 2 kit, read-out: Amylin Receptor cAMP Stimulation Activity: EC50
Method in brief: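 COS-7 cells stably co-expressing human CTR and RAMP3 (AMY3) were treated with 4-fold serially diluted compounds at 2000 cells/well in HBSS with 20 mM HEPES, 0.5 mM IBMX and 0.1% casein for 30 min at 37 °C. cAMP was measured by HTRF (cAMP-d2 plus anti-cAMP cryptate, 1 h at RT) with reads at 665/615 nm.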

[2] = molecular target: T1, human calcitonin receptor (CTR) (Homo sapiens, UniProt P30988); assay: Calcitonin receptor (CTR) cAMP Assay; type: cell-based; settings: COS7-human CTR Clone #2 cells, cAMP dynamic 2 kit; read-out: Calcitonin Receptor cAMP Stimulation Activity: EC50
T1 construct: expressed in transfected cells; host or cells: COS-7 (COS7-human CTR Clone #2)
T1 sequence (P30988 25-474): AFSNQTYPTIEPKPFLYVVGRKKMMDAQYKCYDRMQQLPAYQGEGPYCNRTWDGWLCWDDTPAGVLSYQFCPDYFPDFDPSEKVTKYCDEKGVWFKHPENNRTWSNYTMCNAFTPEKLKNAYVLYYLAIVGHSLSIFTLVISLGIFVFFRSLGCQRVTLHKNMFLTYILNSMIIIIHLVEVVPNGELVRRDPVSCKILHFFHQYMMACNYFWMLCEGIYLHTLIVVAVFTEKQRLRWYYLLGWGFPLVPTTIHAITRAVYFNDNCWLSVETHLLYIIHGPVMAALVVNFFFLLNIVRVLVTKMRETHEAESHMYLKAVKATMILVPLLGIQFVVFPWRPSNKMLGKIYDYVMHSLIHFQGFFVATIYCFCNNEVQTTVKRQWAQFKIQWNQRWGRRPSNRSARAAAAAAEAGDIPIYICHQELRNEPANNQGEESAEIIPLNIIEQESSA
Method in brief: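 COS-7 cells stably expressing human CTR (2000 cells/well) treated with 4-fold serially diluted compounds in HBSS/20 mM HEPES/0.5 mM IBMX/0.1% casein, 30 min at 37° C. cAMP quantified by HTRF (cAMP-d2 plus anti-cAMP cryptate, 1 h RT), fluorescence read at 665 and 615 nm.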

human calcitonin receptor (CTR) and RAMP3 (AMY3), sequence (O60896 24-148, one chain of several): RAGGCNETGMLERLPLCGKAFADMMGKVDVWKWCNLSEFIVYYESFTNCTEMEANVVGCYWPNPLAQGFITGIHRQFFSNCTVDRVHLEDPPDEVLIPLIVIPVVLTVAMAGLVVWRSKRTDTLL

| SMILES | EC50 [1] | EC50 [2] |
| --- | --- | --- |
| Cc1nnc(-c2c(CCC3CCOCC3)nc3c(c2-c2cnc4c(ccn4Cc4ccc(C#N)cn4)c2)C(=O)N2CCC[C@@H]32)o1 [Compound 124, 6-[(5-((2S)-10-(5-methyl-1,3,4-oxadiazol-2-yl)-7-oxo-11-[2-(tetrahydro-2H-pyran-4-yl)ethyl]-6,12-diazatricyclo[6.4.0.0,^1I]dodeca-1(12),8,10-trien-9-yl}-1H-1,7-diazainden-1-yl)methyl]nicotinonitrile] | 2.7 µM | 0.216 µM |
| Cc1nnc(-c2c(CCC3CCOCC3)nc3c(c2-c2cnc4c(ccn4Cc4ccc(C#N)cn4)c2)S(=O)(=O)CC3C(C)C)o1 (stereo not drawn) [Compound 128, 6-[(5-(3-isopropyl-6-(5-methyl-1,3,4-oxadiazol-2-yl)-1,1-dioxo-5-[2-(tetrahydro-2H-pyran-4-yl)ethyl]-1-thia-4-aza-7-indanyl}-1H-1,7-diazainden-1-yl)methyl]nicotinonitrile] | 1.54 µM | 0.12 µM |
| Cc1nnc(-c2c(CCC3CCOCC3)nc3c(c2-c2ccc4nn(Cc5ccc(C#N)c(F)c5)cc4c2)C(=O)N2CCOC[C@@H]32)o1 [Compound 130, 4-[(5-((4aR,9aR)-7-(5-methyl-1,3,4-oxadiazol-2-yl)-9-oxo-6-[2-(tetrahydro-2H-pyran-4-yl)ethyl]-1,2,4,4a-tetrahydro-9H-3-oxa-5,9a-diazafluoren-8-yl}-2H-indazol-2-yl)methyl]-2-fluorobenzonitrile] | 2.31 µM | 0.186 µM |
| Cc1nnc(-c2c(CCC3CCOCC3)nc3c(c2-c2cc4ccnc(NCc5ccc(C#N)nc5)c4s2)S(=O)(=O)CC3C(C)C)o1 (stereo not drawn) [Compound 131, 5-[(2-(3-isopropyl-6-(5-methyl-1,3,4-oxadiazol-2-yl)-1,1-dioxo-5-[2-(tetrahydro-2H-pyran-4-yl)ethyl]-1λ^6-thia-4-aza-7-indanyl}-1-thia-6-aza-7-indenylamino)methyl]-2-pyridinecarbonitrile] | 1.49 µM | 0.332 µM |
| Cc1nnc(-c2c(CCC3CCOCC3)nc3c(c2-c2cc4ccnc(NCc5ccc(C#N)c(F)n5)c4s2)S(=O)(=O)CC3C(C)C)o1 (stereo not drawn) [Compound 134, 2-fluoro-6-[(2-(3-isopropyl-6-(5-methyl-1,3,4-oxadiazol-2-yl)-1,1-dioxo-5-[2-(tetrahydro-2H-pyran-4-yl)ethyl]-1-2-thia-4-aza-7-indanyl}-1-thia-6-aza-7-indenylamino)methyl]nicotinonitrile] | 1.49 µM | 0.235 µM |
| Cc1nnc(-c2c(CCC3CCOCC3)nc3c(c2-c2cc4ccnc(Nc5ccc(F)c(F)c5)c4s2)S(=O)(=O)CC3C(C)C)o1 (stereo not drawn) [Compound 137] | 1.97 µM | 0.276 µM |

Molecules with a lower EC50 [1], results first:

| EC50 [1] | EC50 [2] | SMILES |
| --- | --- | --- |
| 0.174 µM | 0.00663 µM | Cc1nnc(-c2c(CCC3CCOCC3)nc3c(c2-c2ccc4c(c2)oc(=O)n4Cc2ccc(C#N)cn2)C(=O)N2CCC[C@@H]32)o1 [Compound 125, 6-[(6-((2S)-10-(5-methyl-1,3,4-oxadiazol-2-yl)-7-oxo-11-[2-(tetrahydro-2H-pyran-4-yl)ethyl]-6,12-diazatricyclo[6.4.0.0^2,6,]dodeca-1(12),8,10-trien-9-yl}-2-oxo-1,3-benzoxazol-3-yl)methyl]nicotinonitrile] |
| 0.128 µM | 0.0117 µM | Cc1nnc(-c2c(CCC3CCOCC3)nc3c(c2-c2cnc4c(ccn4Cc4ccc(C#N)c(F)c4)c2)S(=O)(=O)N2CCC[C@@H]32)o1 [Compound 126, 4-[(5-{(2S)-10-(5-methyl-1,3,4-oxadiazol-2-yl)-7,7-dioxo-11-[2-(tetrahydro-2H-pyran-4-yl)ethyl]-7λ^6-thia-6,12-diazatricyclo[6.4.0.0^2,6]dodeca-1(12),8,10-trien-9-yl}-1H-1,7-diazainden-1-yl)methyl]-2-fluorobenzonitrile] |
| 0.209 µM | 0.00386 µM | Cc1nnc(-c2c(CCC3CCOCC3)nc3c(c2-c2ccc4c(c2)oc(=O)n4Cc2ccc(C#N)cn2)S(=O)(=O)N2CCC[C@@H]32)o1 [Compound 127, 6-[(6-{(2S)-10-(5-methyl-1,3,4-oxadiazol-2-yl)-7,7-dioxo-11-[2-(tetrahydro-2H-pyran-4-yl)ethyl]-7λ^6-thia-6,12-diazatricyclo[6.4.0.0^2,6]dodeca-1(12),8,10-trien-9-yl}-2-oxo-1,3-benzoxazolidin-3-yl)methyl]nicotinonitrile] |
| 0.211 µM | 0.00446 µM | Cc1nnc(-c2c(CCC3CCOCC3)nc3c(c2-c2ccc4c(c2)oc(=O)n4Cc2ccc(C#N)cn2)S(=O)(=O)CC3C(C)C)o1 (stereo not drawn) [Compound 129, 6-[(6-(3-isopropyl-6-(5-methyl-1,3,4-oxadiazol-2-yl)-1,1-dioxo-5-[2-(tetrahydro-2H-pyran-4-yl)ethyl]-1λ^6-thia-4-aza-7-indanyl}-2-oxo-1,3-benzoxazol-3-yl)methyl]nicotinonitrile] |
| 0.243 µM | 0.0422 µM | Cc1nnc(-c2c(CCC3CCOCC3)nc3c(c2-c2cc4ccnc(NCc5cnc(C#N)c(F)c5)c4s2)S(=O)(=O)CC3C(C)C)o1 (stereo not drawn) [Compound 133, 3-fluoro-5-[(2-(3-isopropyl-6-(5-methyl-1,3,4-oxadiazol-2-yl)-1,1-dioxo-5-[2-(tetrahydro-2H-pyran-4-yl)ethyl]-1λ^6-thia-4-aza-7-indanyl}-1-thia-6-aza-7-indenylamino)methyl]-2-pyridinecarbonitrile] |
| 0.166 µM | 0.00538 µM | Cc1nnc(-c2c(CCC3CCOCC3)nc3c(c2-c2ccc4c(c2)oc(=O)n4Cc2ccc(C#N)c(F)c2)C(=O)N2CCOCC32O)o1 (stereo not drawn) [Compound 135, 4-[(6-(4a-hydroxy-7-(5-methyl-1,3,4-oxadiazol-2-yl)-9-oxo-6-[2-(tetrahydro-2H-pyran-4-yl)ethyl]-1,2,4,4a-tetrahydro-9H-3-oxa-5,9a-diazafluoren-8-yl}-2-oxo-1,3-benzoxazol-3-yl)methyl]-2-fluorobenzonitrile] |
| 0.309 µM | 0.0349 µM | Cc1nnc(-c2c(CCC3CC(C)OC(C)C3)nc3c(c2-c2cc4ccnc(N[C@@H]5CCc6ncccc65)c4s2)S(=O)(=O)CC3C(C)C)o1 (stereo partly drawn) [Compound 136, N—(R)-4-aza-1-indanyl(2-(5-[2-(2,6-dimethyltetrahydro-2H-pyran-4-yl)ethyl]-3-isopropyl-6-(5-methyl-1,3,4-oxadiazol-2-yl)-1,1-dioxo-1λ^6-thia-4-aza-7-indanyl}-1-thia-6-aza-7-indenyl)amine] |
| 0.869 µM | 0.115 µM | Cc1nnc(-c2c(CCC3CCOCC3)nc3c(c2-c2cc4ccnc(Cc5ccc(F)c(F)c5)c4s2)S(=O)(=O)CC3C(C)C)o1 (stereo not drawn) [Compound 138, 7-(7-[(3,4-difluorophenyl)methyl]-1-thia-6-aza-2-indenyl}-3-isopropyl-6-(5-methyl-1,3,4-oxadiazol-2-yl)-5-[2-(tetrahydro-2H-pyran-4-yl)ethyl]-1λ^6-thia-4-aza-1,1-indandione] |
| 0.15 µM | 0.00878 µM | Cc1nnc(-c2c(CCc3ccc(F)cc3)nc3c(c2-c2cc4ccnc(N[C@@H]5CCc6ncccc65)c4s2)c(=O)n2n3CCC2)o1 [Compound 139, 9-(7-[(R)-4-aza-1-indanylamino]-1-thia-6-aza-2-indenyl}-11-[2-(p-fluorophenyl)ethyl]-10-(5-methyl-1,3,4-oxadiazol-2-yl)-2,6,12-triazatricyclo[6.4.0.0^2,6]dodeca-1(8),9,11-trien-7-one] |
